Laboratory results published in ChEMBL document CHEMBL5113394, “Design and synthesis of harmiquins, harmine and chloroquine hybrids as potent antiplasmodial agents” (Eur J Med Chem, 2022).

Key:
[1] = Cytotoxicity against human HepG2 cells assessed as cell growth inhibition incubated for 1 day by neutral red assay; assay type: toxicity, cell-based
[2] = Selectivity index, ratio of IC50 for cytotoxicity against human HepG2 cells to IC50 for antiplasmodial activity against chloroquine-sensitive Plasmodium falciparum 3D7; assay type: toxicity, cell-based; details: read-out: Ratio IC50
[3] = Inhibition of hemin (unknown origin) assessed as inhibition of heme polymerization by measuring reduction in beta-hematin formation at 1 mM measured after 48 hrs by microplate reader assay
Plasmodium falciparum [4] = assay: Antiplasmodial activity against chloroquine-sensitive Plasmodium falciparum 3D7 assessed as inhibition of parasite growth incubated for 3 days by HRP2-ELISA; assay type: functional, organism-based; details: 3D7, 72 h
Plasmodium falciparum [5] = assay: Antiplasmodial activity against multidrug-resistant Plasmodium falciparum Dd2 assessed as inhibition of parasite growth incubated for 3 days by HRP2-ELISA; assay type: functional, organism-based; details: Dd2, 72 h
Plasmodium falciparum [6] = assay: Antiplasmodial activity against multidrug-resistant Plasmodium falciparum K1 assessed as inhibition of parasite growth incubated for 3 days by HRP2-ELISA; assay type: functional, organism-based; details: K1, 72 h
Plasmodium falciparum [7] = assay: Antiplasmodial activity against chloroquine-resistant Plasmodium falciparum 7G8 assessed as inhibition of parasite growth incubated for 3 days by HRP2-ELISA; assay type: functional, organism-based; details: 7G8, 72 h
Plasmodium falciparum [8] = assay: Potency index, ratio of chloroquine IC50 to test compound IC50 for antiplasmodial activity against chloroquine-resistant Plasmodium falciparum 7G8 assessed as inhibition of parasite growth incubated for 3 days by HRP2-ELISA; assay type: functional; details: time 3 day
Plasmodium falciparum [9] = assay: Potency index, ratio of chloroquine IC50 to test compound IC50 for antiplasmodial activity against chloroquine-sensitive Plasmodium falciparum 3D7 assessed as inhibition of parasite growth incubated for 3 days by HRP2-ELISA; assay type: functional; details: time 3 day
Plasmodium falciparum [10] = assay: Potency index, ratio of chloroquine IC50 to test compound IC50 for antiplasmodial activity against multidrug-resistant Plasmodium falciparum Dd2 assessed as inhibition of parasite growth incubated for 3 days by HRP2-ELISA; assay type: functional; details: time 3 day
Plasmodium falciparum [11] = assay: Potency index, ratio of chloroquine IC50 to test compound IC50 for antiplasmodial activity against multidrug-resistant Plasmodium falciparum K1 assessed as inhibition of parasite growth incubated for 3 days by HRP2-ELISA; assay type: functional; details: time 3 day
[12] = Resistance index, ratio of IC50 for antiplasmodial activity against multidrug-resistant Plasmodium falciparum Dd2 to IC50 for antiplasmodial activity against chloroquine-sensitive Plasmodium falciparum 3D7; assay type: functional
[13] = Resistance index, ratio of IC50 for antiplasmodial activity against multidrug-resistant Plasmodium falciparum K1 to IC50 for antiplasmodial activity against chloroquine-sensitive Plasmodium falciparum 3D7; assay type: functional
[14] = Resistance index, ratio of IC50 for antiplasmodial activity against chloroquine-resistant Plasmodium falciparum 7G8 to IC50 for antiplasmodial activity against chloroquine-sensitive Plasmodium falciparum 3D7; assay type: functional

Row | SMILES | IC50 at 1 day [1] [nM] | selectivity ratio [2] | inhibition [3] [%] | IC50 (Plasmodium falciparum [4]) [nM] | IC50 (Plasmodium falciparum [5]) [nM] | IC50 (Plasmodium falciparum [6]) [nM] | IC50 (Plasmodium falciparum [7]) [nM] | Ratio IC50 (Plasmodium falciparum [8]) | Ratio IC50 (Plasmodium falciparum [9]) | Ratio IC50 (Plasmodium falciparum [10]) | Ratio IC50 (Plasmodium falciparum [11]) | Ratio IC50 [12] | Ratio IC50 [13] | Ratio IC50 [14]
1 | COc1ccc2c3ccnc(C)c3n(CCC(=O)NCCNc3ccnc4cc(Cl)ccc34)c2c1 | 12800 | 795 | < 50 |  |  |  |  |  |  |  |  |  |  | 
2 | CCN(CC)CCCC(C)Nc1ccnc2cc(Cl)ccc12 (configuration not stated) |  |  | > 75 |  |  |  |  |  |  |  |  |  |  | 
3 | COc1ccc2c3ccnc(C)c3n(CCNC(=O)CNc3ccnc4cc(Cl)ccc34)c2c1 | 8900 | 4450 | 50 | 2 | 16.2 | 24.8 | 7.4 | 29.8 | 5.5 | 22.5 | 15.9 |  |  | 
4 | Cc1nccc2c1[nH]c1cc(OCCNC(=O)CNc3ccnc4cc(Cl)ccc34)ccc12 | 15900 | 68.1 | 50 | 234 | 309 |  |  |  |  |  |  | 1.3 |  | 
5 | Cc1nccc2c1[nH]c1ccc(OCCNC(=O)CNc3ccnc4cc(Cl)ccc34)cc12 | > 20000 | > 66 | < 50 | 303 | 535 |  |  |  |  |  |  | 1.7 |  | 
6 | Cc1nccc2c1[nH]c1cc(OCc3cn(-c4ccnc5cc(Cl)ccc45)nn3)ccc12 | 6400 | 66.8 | > 75 | 95.8 | 203 | 299 | 195 |  |  |  |  | 2.1 | 3.1 | 2
7 | Clc1ccc2c(OCc3cn(Cc4nccc5c4[nH]c4ccccc45)nn3)ccnc2c1 | > 25000 | > 0.9 | < 50 | > 28000 | > 27800 |  |  |  |  |  |  |  |  | 
8 | Cc1nccc2c1[nH]c1cc(OCc3cn(CCNc4ccnc5cc(Cl)ccc45)nn3)ccc12 | 6300 | 110 | > 75 | 57.3 | 76.2 | 33.5 | 44.2 |  |  |  |  | 1.3 | 0.5 | 0.7
9 | COc1ccc2c(c1)[nH]c1c(C)nccc12 [HARMINE] | > 250000 |  |  |  |  |  |  |  |  |  |  |  |  | 
10 | COc1ccc2c3ccnc(C)c3n(Cc3cn(CCNc4ccnc5cc(Cl)ccc45)nn3)c2c1 | 14000 | 829 | 50 | 11.6 | 204 | 163 | 28.6 |  |  |  |  |  |  | 
11 | COc1ccc2c3ccnc(C)c3n(Cc3cn(-c4ccnc5cc(Cl)ccc45)nn3)c2c1 | 19700 | 21.9 | < 50 | 899 | 1820 |  |  |  |  |  |  | 2 |  | 
12 | Cc1nccc2c1[nH]c1ccc(OCc3cn(-c4ccnc5cc(Cl)ccc45)nn3)cc12 | 5500 | 1.5 | > 75 | 3660 | 7110 |  |  |  |  |  |  | 1.9 |  | 
13 | O=C(CNc1ccnc2cc(Cl)ccc12)NCc1nccc2c1[nH]c1ccccc12 | 7800 | 144 | < 50 | 54 | 171 |  |  |  |  |  |  | 3.1 |  | 
14 | COc1ccc2c3ccnc(C)c3n(CCC(=O)NCCCCNc3ccnc4cc(Cl)ccc34)c2c1 | > 25000 | > 723 | < 50 |  |  |  |  |  |  |  |  |  |  | 
15 | Cc1nc(Cn2cc(COc3ccnc4cc(Cl)ccc34)nn2)cc2c1[nH]c1ccccc12 | > 100000 | > 9.22 | 50 | 10800 | 5420 |  |  |  |  |  |  | 0.4 |  | 
16 | Cc1nc(CNC(=O)CNc2ccnc3cc(Cl)ccc23)cc2c1[nH]c1ccccc12 | 18600 | 1430 | < 50 | 13 | 46.1 | 48.8 | 28.2 |  |  |  |  | 3.5 | 3.7 | 2.1
17 | Cc1nccc2c1[nH]c1ccc(OCc3cn(CCNc4ccnc5cc(Cl)ccc45)nn3)cc12 | 15000 | 228 | > 75 | 65.7 | 160 | 141 | 144 |  |  |  |  | 2.4 | 2.1 | 2.1
